Measured values published in patent publication US20140079741A1, “INHIBITION AND TREATMENT OF BIOFILMS” (priority 2011, published 2014).

Tests used:
[1] = tested on: planktonic cultures of C. albicans CAF2-1; test: MIC50 against planktonic cultures (NCCLS M27-A3); assay type: cell-based, Candida albicans; details: diclofenac up to 2 mM
Procedure: (§1) Similar results were obtained by determination of the MIC50 values. The susceptibility testing and determination of minimal inhibitory concentrations (MIC) of diclofenac and caspofungin, and combinations thereof that inhibit fungal growth by 50% (MIC50) were performed according the NCCLS M27-A3 protocol (2008).

[2] = tested on: C. albicans biofilms grown on catheters; test: In vitro biofilm drug susceptibility on polyurethane catheter pieces (CFU); assay type: cell-based, Candida albicans; details: 2 mM diclofenac pretreatment alone
Procedure: In an alternative setup, in vitro biofilm drug susceptibility assays were performed using serum-coated 1 cm polyurethane catheter pieces (Arrow International Reading) as described previously. Biofilms were grown in RPMI 1640 (pH 7.0) and Candida cells were allowed to adhere to the substrate for 90 min.
Diclofenac (2 mM) was administered during the period of adhesion of C. albicans cells on the catheters and throughout the period of biofilm formation. Catheter fragments containing diclofenac-pretreated or untreated mature biofilms were washed and subsequently incubated with caspofungin (125 μM) or water in the presence or absence of diclofenac (2 mM) for 24 h, respectively. Biofilms were washed and quantified by determination of colony forming units. Untreated biofilms were considered as controls. Statistical analysis was performed using unpaired t-test; differences were considered significant if p<0.05. Data are the mean and SEM of five independent experiments using at least two catheters per test group.
Similar results were obtained when assessing the antibiofilm effect of caspofungin against mature biofilms, which were formed on diclofenac-soaked catheter fragments versus those formed on unsoaked catheter fragments.

[3] = tested on: C. albicans biofilm cells; test: Membrane permeability by propidium iodide fluorescence; assay type: cell-based, Candida albicans; details: 2 mM diclofenac during adhesion and growth phase, 24 h, RPMI 1640
Procedure: This was further investigated by evaluating the membrane-disruptive activity of diclofenac on in vitro grown C. albicans biofilm cells by measuring the fluorescence enhancement of propidium iodide (PI). To this end, C. albicans biofilms were grown in RPMI 1640 (pH 7.0) in the presence or absence of diclofenac (ranging from 0.25-4 mM) for 24 h. Next, the biofilm cells were incubated with 3% PI for 20 minutes at room temperature in the dark. Membrane permeability was quantified by measurement of PI fluorescence (excitation at 535 nm, emission at 617 nm).

C. albicans WT biofilms = test: Biofilm survival by CFU determination (plating on YPD); assay type: cell-based, Candida albicans; details: 500 μg/ml diclofenac alone
Procedure: Using the same setup as in Example 2, WT biofilms grown in the presence or absence of diclofenac (500 μg/ml) or Δefg1 biofilms were incubated with various concentrations of Amphotericin B (AmB) (2.5-10 μg/ml) for 24 h, both in the presence or absence of diclofenac. After washing, the remaining living cells within the biofilm were determined by plating on YPD and determination of colony forming units (CFUs).

C. albicans cells = test: Morphology of planktonic and biofilm cells (fluorescence microscopy); assay type: cell-based, Candida albicans; details: pretreated with diclofenac alone, 0.5-3 mM
Procedure: However, the morphology of biofilm cells pretreated with diclofenac alone (ranging from 0.5-3 mM), was not altered.

[4] = tested on: C. albicans biofilms of wild type CAF2; test: Biofilm activity assay, crystal violet quantification (BEC50); assay type: cell-based, Candida albicans; details: 500 μg/ml diclofenac in the absence of miconazole
Procedure: Biofilm activity assay. The activity of miconazole and fluconazole against 16 h-old C. albicans biofilms (10^7 cells/well) was assessed using the crystal violet quantification method. The biofilm-eradicating capacity of a compound was determined as the minimal concentration resulting in 50% eradication of the biofilm (BEC50).
Miconazole sensitivity was analyzed of biofilms of C. albicans homozygous null mutants affected in genes involved in the cyclic AMP signaling pathway, namely Δcdc35, Δras1, Δpde1, Δpde2 and Δefg1. To this end, the inventors incubated 16 h-old C. albicans biofilms with various concentrations of miconazole for 24 h and determined the remaining biomass using the crystal violet quantification method.
To this end, cultures of the WT CAF2-1 were grown overnight (2×10^8 cells/ml) in YPD (1% yeast extract, 2% peptone, 2% glucose) and washed 3 times in PBS (pH 7.4). After dilution (OD600=0.5) in SC (1% CSM, complete amino acid supplement mixture, 1% YNB, yeast nitrogen base; 2% glucose), the cultures were resuspended (100 μl/well) in a 96well microtiter plate. After 1 h of adhesion, the adherent WT cells were incubated with or without 500 μg/ml diclofenac and allowed biofilm formation for 16 h. Next, the resulting biofilms were washed with PBS and treated with various concentrations of miconazole for 24 h in the absence or presence of diclofenac. After washing, the remaining biomass was determined using the crystal violet quantification method.
The biofilm-eradicating capacity of a compound was determined as the minimal concentration resulting in 50% eradication of the biofilm (BEC50).

[5] = tested on: biofilms of C. albicans CAF2-1; test: MIC50 against biofilms (XTT reduction assay); assay type: cell-based, Candida albicans; details: Candida albicans, biofilms, diclofenac alone
Procedure: Using the same setup as above, WT biofilms grown in the presence or absence of diclofenac (0.5-3 mM or 148-888 μg/mL) were incubated with various concentrations of Caspofungin (0-150 μM) for 24 h, both in the presence or absence of diclofenac. After washing, the remaining living cells within the biofilm was determined by CellTiter-Blue quantification. The MIC50 of caspofungin, diclofenac and the combination of both drugs against pretreated or mature C. albicans biofilms was quantified by XTT reduction assay (Ramage et al.).
as §1

[6] = tested on: C. albicans CAF2 biofilms on implanted catheter fragments; test: Rat subcutaneous catheter infection model (in vivo biofilm susceptibility); set-up: species or system Candida albicans; details: rats
Procedure: A rat subcutaneous catheter infection model was used for in vivo biofilm susceptibility studies, in which 6 rats were treated with sterile saline (control, 40 catheters), 6 rats with diclofenac (48 catheters), 5 rats with caspofungin (40 catheters) and 6 rats with a combination of diclofenac and caspofungin (45 catheters).
Diclofenac and caspofungin solutions for intravenous injection were prepared in sterile physiological solution. The administration of diclofenac (3 mg/kg) started immediately after the catheter implant and continued daily up to 9 days. The treatment with caspofungin (3 mg/kg) was initiated after 48 h of in vivo biofilm development and maintained by daily injections for 7 days. Sterile saline was administered to the control group. Further analysis and quantification of the number of cells per individual biofilm was performed as previously described. Statistical analysis was performed using unpaired t-test; differences were considered significant if p<0.05. Data are the means and SEM of 2 independent experiments. Six independent catheters retrieved from each test group were used for scanning electron microscopy (SEM) analyses. Prior to the SEM analysis, each catheter fragment was cut longitudinally through the lumen and subsequently prepared for microscopy as previously described.

Compound: O=C(O)Cc1ccccc1Nc1c(Cl)cccc1Cl [diclofenac]
- inhibitory activity against planktonic cells [1]: no inhibitory activity
- number of biofilm cells compared to untreated catheters [2]: no significant difference
- membrane permeability compared to untreated cells [3]: significantly increased membrane permeability
- less biofilm cells compared to untreated WT biofilms (C. albicans WT biofilms): about 50%
- morphology of biofilm cells (C. albicans cells): not altered
- remaining C. albicans biofilms compared to untreated WT biofilms [4]: about 50%
- MIC50 [5]: 2000 µM
- biofilm structure by scanning electron microscopy ([6]; diclofenac alone): no biofilm-inhibitory effect
- number of biofilm cells on catheters compared to control treatment ([6]; diclofenac alone 3 mg/kg intravenous daily, 48 h pretreatment and up to 7 days further): no significant difference
